Our source for the GI50 and IC50 values is US20250179059A1 (The Regents of the University of California, priority 2021, published 2025).

In general, GI50 refers to the concentration that inhibits growth by half. The term IC50 denotes the point on the concentration scale where inhibition reaches its midpoint.

Test [1] concerns human SKM-1 acute myeloid leukemia cells. Put plainly: SKM-1 antiproliferation cell-based assay (ATPlite). The settings on record: Homo sapiens. In a few lines:
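Log-phase cells in RPMI 1640/15% FBS were seeded at 34722 cells/mL and exposed for 4 days to nine-concentration DMSO serial dilutions in triplicate. Viability was read as ATP luminescence (ATPlite 1step), and IC50 values came from variable-slope non-linear regression.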
A general note: In ATP-based viability assays light output follows the ATP content of the culture.

In test [2] the target is T1, human BRD4 bromodomain II (Homo sapiens, UniProt O60885).
T1 construct: human BRD4 bromodomain II [based on Genbank NM_058243, residues 349-460]; host or cells: E. coli
The test is described as follows: Bromodomain binding assay (AlphaScreen), BRD4 BDII. In a few lines: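 AlphaScreen competition with biotinylated H4 peptide (aa 1-21, K5/K8/K12/K16Ac), using nickel-chelate acceptor and streptavidin donor beads. Targets were His6-BRD4 BDI (44-170) or BDII (349-460), with a 30 min compound preincubation over a 10-point 3-fold series. IC50 was fitted from percentage peptide binding.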
(In general: In Alpha technology, singlet oxygen from a donor bead excites a nearby acceptor bead.)

The mark [3] stands for this setting: SKM-1, 96 h, SKM-1 antiproliferation assay, 4 days, Table C2.
Where [4] appears, read: AlphaScreen assay, Table C2, read-out: BRD4 BDII IC50.
The mark [5] stands for this setting: SKM-1, SKM-1 antiproliferation assay.
The mark [6] stands for this setting: BRD4 BDII AlphaScreen assay, read-out: BRD4 BD2 IC50.

Structures are written as SMILES. Like-named read-outs stand apart in the source and are kept apart here. A value given as a limit tells only on which side of the number the result lay.

As to `[2H]C([2H])([2H])n1ccn(-c2ccc(-c3cc(F)cc(-c4ccnc(N5CCN[C@H](C)C5)c4)c3O)cc2Cl)c1=O` [Example 453, (R)-1-(3-chloro-5′-fluoro-2′-hydroxy-3′-(2-(3-methylpiperazin-1-yl)pyridin-4-yl)-[1,1′-biphenyl]-4-yl)-3-deuteromethyl-1H-imidazol-2(3H)-one], the 50% growth inhibitory concentration (GI50) in test [1] (setting [3]) was in the range of 0.3 to 30 nM. Further, the IC50 in test [2] (setting [4]) lay within 0.01 to 1 nM.
In the same order, the values of `Cn1ccn(-c2ccc(-c3cc(F)cc(-c4cncc(N5CCN(C(C)(C)C)CC5)c4)c3O)cc2Cl)c1=O` [Example 664, 1-(3′-(5-(4-(tert-butyl)piperazin-1-yl)pyridin-3-yl)-3-chloro-5′-fluoro-2′-hydroxy-[1,1′-biphenyl]-4-yl)-3-methyl-1H-imidazol-2(3H)-one] are 0.3 to 30 nM and 0.01 to 1 nM.
The molecule `Cn1ccn(-c2ccc(-c3cc(F)cc(-c4ccnc(N5CC6(CC6)[C@@](C)(O)C5)c4)c3O)cc2Cl)c1=O` [Example 816] displayed a GI50 in test [1] (setting [3]) of 0.3 to 30 nM. Also, the IC50 in test [2] (setting [4]) was in the range of 0.01 to 1 nM.
As for `Cc1ncc(-c2cc(F)cc(-c3ccc(-n4ccn(C)c4=O)c(Cl)c3)c2O)cc1N1CCN(C2CCC2)CC1` [Example 883], the concentration for 50% growth inhibition (GI50) in test [1] (setting [5]) is 0.3 to 30 nM. Besides, the IC50 in test [2] (setting [6]) fell in the range of 1 to 10 nM.
As for `CC(C)N1CCN(c2cc(-c3cc(F)cc(-c4ccc(-n5ccn(C)c5=O)c(Cl)c4)c3O)cc3c2cnn3C)CC1` [Example 672, 1-(3-chloro-5′-fluoro-2′-hydroxy-3′-(4-(4-isopropylpiperazin-1-yl)-1-methyl-1H-indazol-6-yl)-[1,1′-biphenyl]-4-yl)-3-methyl-1H-imidazol-2(3H)-one], in test [1] (setting [3]), the GI50 is 0.3 to 30 nM. The half-maximal inhibitory concentration (IC50) in test [2] (setting [4]) was in the range of 0.01 to 1 nM.
In turn, `Cn1ccn(-c2ccc(-c3cc(F)cc(-c4cccc(-c5cccc(CN)c5)c4)c3O)cc2Cl)c1=O` [Example 866] yielded a GI50 in test [1] (setting [5]) of 300 to 3000 nM. The concentration for half-maximal inhibition (IC50) in test [2] (setting [6]) was 10 to 100 nM.
In the case of `CC(C)Oc1cc(-c2cc(F)cc(-c3ccnc(N4CCNCC4)c3)c2O)cc(Cl)c1N1CCN(C)C1=O` [Example 418, 1-(3-chloro-5′-fluoro-2′-hydroxy-5-isopropoxy-3′-(2-(piperazin-1-yl)pyridin-4-yl)-[1,1′-biphenyl]-4-yl)-3-methylimidazolidin-2-one], the GI50 in test [1] (setting [3]) fell in the range of 300 to 3000 nM. Besides, the IC50 in test [2] (setting [4]) lay in the range of 10 to 100 nM.
As to `Cc1cc(-c2cccc(-c3ccc(N4CCN(C)C4=O)c(Cl)c3)c2O)cc(N2CCNCC2)n1` [Example 338, 1-(3-chloro-2′-hydroxy-3′-(2-methyl-6-(piperazin-1-yl)pyridin-4-yl)-[1,1′-biphenyl]-4-yl)-3-methylimidazolidin-2-one], the GI50 in test [1] (setting [3]) lay within 30 to 300 nM. Also, the IC50 in test [2] (setting [4]) fell in the range of 1 to 10 nM.
In the same order, the values of `CC(C)N1CCN(c2cc(-c3cc(F)cc(-c4ccc(-n5ccn(C)c5=O)c(Cl)c4)c3O)cc3[nH]ncc23)CC1` [Example 587, 1-(3-chloro-5′-fluoro-2′-hydroxy-3′-(4-(4-isopropylpiperazin-1-yl)-1H-indazol-6-yl)-[1,1′-biphenyl]-4-yl)-3-methyl-1H-imidazol-2(3H)-one] are 0.3 to 30 nM and 1 to 10 nM.
In test [1] (setting [5]), `Cc1cc(-c2ccc(-n3ccn(C)c3=O)c(Cl)c2)c(O)c(-c2cc(F)cc(N3CCN(C(C)(C)C)CC3)c2)n1` [Example 1014, 1-(4-(2-(3-(4-(tert-butyl)piperazin-1-yl)-5-fluorophenyl)-3-hydroxy-6-methylpyridin-4-yl)-2-chlorophenyl)-3-methyl-1H-imidazol-2(3H)-one] gave a GI50 of 0.3 to 30 nM. In addition, the half-maximal inhibitory concentration (IC50) in test [2] (setting [6]) fell in the range of 0.01 to 1 nM.
For `Cn1ccn(-c2ccc(-c3cc(F)cc(-c4cccc(N5CCN(C6CCOC6)CC5)c4)c3O)cc2Cl)c1=O` (stereo not drawn) [Example 867] the same measures were 30 to 300 nM and 1 to 10 nM.
With `Cn1ccn(-c2ccc(-c3cc(F)cc(-c4ccnc(N5CC6CCC(C5)N6)c4)c3O)cc2Cl)c1=O` [Example 511, 1-(3′-(2-(3,8-diazabicyclo[3.2.1]octan-3-yl)pyridin-4-yl)-3-chloro-5′-fluoro-2′-hydroxy-[1,1′-biphenyl]-4-yl)-3-methyl-1H-imidazol-2(3H)-one], the concentration for 50% growth inhibition (GI50) in test [1] (setting [3]) fell in the range of 0.3 to 30 nM. In addition, the concentration for half-maximal inhibition (IC50) in test [2] (setting [4]) is 1 to 10 nM.
Regarding `CN1CCN(c2ccc(-c3cc(F)cc(-c4cc(N5CC[C@H](N)C5)c(=O)n(C)c4)c3O)cc2Cl)C1=O` [Example 394, (S)-3-(3-aminopyrrolidin-1-yl)-5-(3′-chloro-5-fluoro-2-hydroxy-4′-(3-methyl-2-oxoimidazolidin-1-yl)-[1,1′-biphenyl]-3-yl)-1-methylpyridin-2(1H)-one], in test [1] (setting [3]), the GI50 fell in the range of 30 to 300 nM. In addition, the IC50 in test [2] (setting [4]) fell in the range of 1 to 10 nM.
Turning to `CC(=O)Nc1ccc(-c2cc(F)cc(-c3cccc(N4CCN(C(C)(C)C)CC4)c3)c2O)cc1Cl` [Example 919, N-(3″-(4-(tert-butyl)piperazin-1-yl)-3-chloro-5′-fluoro-2′-hydroxy-[1,1′:3′,1″-terphenyl]-4-yl)acetamide], the 50% growth inhibitory concentration (GI50) in test [1] (setting [5]) was 300 to 3000 nM. Further, in test [2] (setting [6]), the concentration for half-maximal inhibition (IC50) was in the range of 1 to 10 nM.
In test [1] (setting [3]), `Cn1ccn(-c2ccc(-c3cc(F)cc(-c4ccnc(N5CCC(C)(N)CC5)c4)c3O)cc2Cl)c1=O` [Example 778] displayed a concentration for 50% growth inhibition (GI50) of 0.3 to 30 nM. In test [2] (setting [4]), the IC50 fell in the range of 1 to 10 nM.
Molecule `COc1ncc(-c2cc(F)cc(-c3ccc(-n4ccn(C)c4=O)c(Cl)c3)c2OC(C)=O)cc1N1CCN(C(C)C)CC1` [Example 860] returned a concentration for 50% growth inhibition (GI50) in test [1] (setting [5]) of 0.3 to 30 nM. In test [2] (setting [6]), the IC50 was > 100 nM.
For `Cn1ccn(-c2ccc(-c3cc(F)nc(-c4cccc(N5CCN(C(C)(C)C)CC5)c4)c3O)cc2Cl)c1=O` [Example 1029, 1-(4-(2-(3-(4-(tert-Butyl)piperazin-1-yl)phenyl)-6-fluoro-3-hydroxypyridin-4-yl)-2-chlorophenyl)-3-methyl-1H-imidazol-2(3H)-one] the same measures were 0.3 to 30 nM and 0.01 to 1 nM.
In turn, `Cc1cc(-c2cncc(N3CCN[C@H](C)C3)c2)c(O)c(-c2ccc(-n3ccn(C)c3=O)c(F)c2)c1` [Example 545, (R)-1-(3-fluoro-2′-hydroxy-5′-methyl-3′-(5-(3-methylpiperazin-1-yl)pyridin-3-yl)-[1,1′-biphenyl]-4-yl)-3-methyl-1H-imidazol-2(3H)-one] displayed a 50% growth inhibitory concentration (GI50) in test [1] (setting [3]) of 0.3 to 30 nM. Besides, in test [2] (setting [4]), the IC50 lay in the range of 0.01 to 1 nM.
With `Cn1ccn(-c2ccc(-c3cc(F)cc(-c4ccc5ccc(C(C)(C)O)cc5c4)c3O)cc2Cl)c1=O` [Example 801, 1-(3-chloro-5′-fluoro-2′-hydroxy-3′-(7-(2-hydroxypropan-2-yl)naphthalen-2-yl)-[1,1′-biphenyl]-4-yl)-3-methyl-1H-imidazol-2(3H)-one], the 50% growth inhibitory concentration (GI50) in test [1] (setting [3]) is 30 to 300 nM. Moreover, the IC50 in test [2] (setting [4]) is 1 to 10 nM.
In the same order, the values of `O=C1CCCN1c1c(Cl)cc(-c2cc(F)cc(-c3ccnc(N4CCNCC4)c3)c2O)cc1Cl` [Example 402, 1-(3,5-dichloro-5′-fluoro-2′-hydroxy-3′-(2-(piperazin-1-yl)pyridin-4-yl)-[1,1′-biphenyl]-4-yl)pyrrolidin-2-one] are 300 to 3000 nM and > 100 nM.
In test [1] (setting [5]), `CCOc1cc(-c2cc(F)cc(-c3cccc(N4CCN(C(C)(C)C)CC4)c3)c2O)cc(Cl)c1-n1ccn(C)c1=O` [Example 925, 1-(3″-(4-(tert-Butyl)piperazin-1-yl)-3-chloro-5-ethoxy-5′-fluoro-2′-hydroxy-[1,1′:3′,1″-terphenyl]-4-yl)-3-methyl-1H-imidazol-2(3H)-one] displayed a GI50 of 30 to 300 nM. Also, the 50% inhibitory concentration (IC50) in test [2] (setting [6]) lay in the range of 10 to 100 nM.
